Test results as given in the supplement of paper PMC10307832.

Tests used:
Assay in all cases: relative viability (nuclei count vs DMSO), 5 days (fraction); higher = more cells survive
R406 + Foretinib = compound: COc1cc(Nc2ncc(F)c(Nc3ccc4c(n3)NC(=O)C(C)(C)O4)n2)cc(OC)c1OC [R406] + COc1cc2c(Oc3ccc(NC(=O)C4(C(=O)Nc5ccc(F)cc5)CC4)cc3F)ccnc2cc1OCCCN1CCOCC1 [Foretinib] (partner 0.25 µM)
Summary of the method: (§1)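 Lung cancer cell lines in 1536-well plates got either a single drug or a fixed anchor-drug dose together with five library-drug doses (not always all listed) in √10 steps, by pin tool, on the day after seeding. Nuclei were counted after 5 days, and relative viability is the treated-to-vehicle ratio of nuclei counts. Values are medians of duplicate plates.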

Daporinad + Bortezomib = compound: O=C(/C=C/c1cccnc1)NCCCCC1CCN(C(=O)c2ccccc2)CC1 [Daporinad] + CC(C)C[C@H](NC(=O)[C@H](Cc1ccccc1)NC(=O)c1cnccn1)B(O)O [Bortezomib] (partner 0.002 µM)
Summary of the method: as §1

R406 + Pemetrexed = compound: COc1cc(Nc2ncc(F)c(Nc3ccc4c(n3)NC(=O)C(C)(C)O4)n2)cc(OC)c1OC [R406] + Nc1nc2[nH]cc(CCc3ccc(C(=O)N[C@@H](CCC(=O)O)C(=O)O)cc3)c2c(=O)[nH]1 [Pemetrexed] (partner 0.2 µM)
Summary of the method: as §1

Daporinad + Crizotinib = compound: O=C(/C=C/c1cccnc1)NCCCCC1CCN(C(=O)c2ccccc2)CC1 [Daporinad] + C[C@@H](Oc1cc(-c2cnn(C3CCNCC3)c2)cnc1N)c1c(Cl)ccc(F)c1Cl [Crizotinib] (partner 1 µM)
Summary of the method: as §1

Work on UMC-11 yielded a relative viability (R406 + Foretinib; first compound 0.08 µM) of 1.11, a relative viability (R406 + Foretinib; first compound 0.253 µM) of 1.09 and a relative viability (R406 + Foretinib; first compound 0.8 µM) of 0.987. For the same cell line, the relative viability (R406 + Foretinib; first compound 2.53 µM) was 0.789, the relative viability (R406 + Foretinib; first compound 8 µM) was 0.499 and the relative viability (Daporinad + Bortezomib; first compound 0.0005 µM) was 0.668. The relative viability (Daporinad + Bortezomib; first compound 0.001581 µM) was 0.373, the relative viability (Daporinad + Bortezomib; first compound 0.005 µM) was 0.678 and the relative viability (Daporinad + Bortezomib; first compound 0.01581 µM) was 0.827. The relative viability (R406 + Pemetrexed; first compound 0.08 µM) was 0.764, the relative viability (R406 + Pemetrexed; first compound 0.253 µM) was 0.808 and the relative viability (R406 + Pemetrexed; first compound 0.8 µM) was 0.889. The relative viability (R406 + Pemetrexed; first compound 2.53 µM) was 0.609, the relative viability (R406 + Pemetrexed; first compound 8 µM) was 0.304 and the relative viability (Daporinad + Crizotinib; first compound 0.0005 µM) was 0.672. For the same cell line, the relative viability (Daporinad + Crizotinib; first compound 0.001581 µM) was 0.641, the relative viability (Daporinad + Crizotinib; first compound 0.005 µM) was 0.852 and the relative viability (Daporinad + Crizotinib; first compound 0.01581 µM) was 0.656.
